Numbered stars: 1 amine (or outer) side, 2 acyl side, 3 side chain; on linkers, the order of the positions; unused ones are H or OH. Bridge positions count the residues as written; N and C are the ends. Square brackets hold non-standard residues; d marks the D form. Ends that are not written are not given here. Peptide text beside a SMILES is read from it. DABHC = 2-azabicyclo[2,2,1]heptane-3-carboxylic acid, D-form (1R,3R,4S), O=C([C@H]1[C@H]2CC[C@H](C2)N1[*:1])[*:2]; X2 = O=C([C@@H]1[C@@H]2CC[C@@H](C2)N1[*:1])[*:2]; X1 = O=C([C@H]1[C@H]2CC[C@H](C2)N1[*:1])[*:2]; LABHC = not defined here
Key:
NR6 cells = test: Mitogenic activity on parental NR6 cell line which lacks EGF-R; assay type: cell-based, mouse; details: doses maximally stimulating for NR6/HER cells; FIG. 3
NR6/HER cells [1] = test: Effect of peptide on the mitogenic response induced by TGFA; assay type: cell-based, mouse
Experimental: (§1) The ability of the Example 1 peptide to induce DNA synthesis in confluent and quiescent cells was assayed as described in Davies, D. E. et al, Br. J. Cancer 1994, 70, 263-269 but using NR6/HER or NR6 cells in place of human foreskin fibroplasts.

NR6/HER cells [2] = assay type: cell-based, mouse
Experimental: NR6 and NR6/HER cells (NR6 mouse fibroblasts transfected with human EGF-R expression plasmid) and HN5 squamous carcinoma cells (see Cowley, G. P. et al, Br. J. Cancer 1986, 53, 2230229) were routinely cultured in Dulbecco's Modified Eagles Medium (DMEM) containing 10% foetal bovine serum (FBS), 2 mM glutamine, non-essential amino acids, 10 U/ml penicillin and 10 μg/ml streptomycin at 37° C. in a humidified atmosphere of air containing 5% CO2. G418 (100 μg/ml) was also included in the NR6/HER growth medium as selection for EGF Receptor encoding transformants.
as §1

EGF Receptor = target: T1, EGF Receptor (Homo sapiens, UniProt P00533); test: EGF Receptor Tyr phosphorylation assay in HN5 cells (Western blotting); assay type: cell-based; details: 10 minutes at room temperature
T1 construct: endogenous in cells; host or cells: HN5 squamous carcinoma cells
Experimental: EGF Receptor Tyr phosphorylation assays were performed using HN5 cells at approximately 50% confluence in 96-well plates. Cells were plated in 10% FBS/DMEM and allowed to adhere overnight. Medium was removed and wells washed twice with DMEM. The peptide was diluted in DMEM and added in 50 μl volume and cells incubated for 10 minutes at room temperature. At the end of incubation, reagents were removed and the cells washed once with 50 μl/well buffered saline and then rapidly solubilised with 50 μl/well×1 sample buffer containing phosphatase and protease inhibitors (1 mM NaF, 1 mM Na3 VO4, 100 μM PMSF). Enhanced phosphorylation of the 170 kDa EGF-R was determined by Western Blotting after SDS polyacrylamide gel electrophoresis as in Holt, S. J. et al, Biochem. Pharmacol. 1994, 47, 117-126.

[3] = target: human EGF Receptor on NR6/HER cells (NR6 mouse fibroblasts transfected with human EGF-R expression plasmid) (human, UniProt P00533); test: cell-based or functional assay

T1 sequence (P00533 25-1210): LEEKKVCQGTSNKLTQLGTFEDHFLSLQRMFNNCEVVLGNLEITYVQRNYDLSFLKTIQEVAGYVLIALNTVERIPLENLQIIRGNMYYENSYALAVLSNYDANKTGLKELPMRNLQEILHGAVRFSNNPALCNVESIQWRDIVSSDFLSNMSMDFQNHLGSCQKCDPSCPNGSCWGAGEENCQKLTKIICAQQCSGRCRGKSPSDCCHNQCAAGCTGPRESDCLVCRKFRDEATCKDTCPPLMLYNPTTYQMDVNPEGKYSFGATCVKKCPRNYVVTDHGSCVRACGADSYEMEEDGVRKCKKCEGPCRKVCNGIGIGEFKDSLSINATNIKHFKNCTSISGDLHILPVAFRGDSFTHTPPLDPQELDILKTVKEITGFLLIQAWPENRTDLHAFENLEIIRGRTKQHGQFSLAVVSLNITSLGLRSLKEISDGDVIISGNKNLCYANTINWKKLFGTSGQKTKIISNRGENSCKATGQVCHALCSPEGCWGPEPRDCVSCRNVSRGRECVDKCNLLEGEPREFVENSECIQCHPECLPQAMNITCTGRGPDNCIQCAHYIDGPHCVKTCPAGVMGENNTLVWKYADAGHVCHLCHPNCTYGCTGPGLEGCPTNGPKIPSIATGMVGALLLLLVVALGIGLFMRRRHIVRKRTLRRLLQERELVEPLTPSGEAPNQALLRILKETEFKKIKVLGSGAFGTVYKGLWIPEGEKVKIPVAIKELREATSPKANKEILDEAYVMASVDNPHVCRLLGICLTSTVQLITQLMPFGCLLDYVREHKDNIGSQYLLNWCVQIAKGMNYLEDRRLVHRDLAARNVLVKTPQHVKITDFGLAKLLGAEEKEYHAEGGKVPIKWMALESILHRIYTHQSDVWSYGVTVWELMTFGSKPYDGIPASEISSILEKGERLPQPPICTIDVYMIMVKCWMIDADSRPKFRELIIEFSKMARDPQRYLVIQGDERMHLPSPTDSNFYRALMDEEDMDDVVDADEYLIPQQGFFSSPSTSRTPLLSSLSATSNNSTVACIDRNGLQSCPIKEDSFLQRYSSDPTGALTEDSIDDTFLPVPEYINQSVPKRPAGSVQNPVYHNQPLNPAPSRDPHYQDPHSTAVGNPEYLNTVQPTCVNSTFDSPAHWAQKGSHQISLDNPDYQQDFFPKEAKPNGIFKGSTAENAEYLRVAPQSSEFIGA

EC50 (NR6/HER cells [2]) [µM]	DNA synthesis (mitogenic activity), EC50 [3] [µM]	Molecule	also measured
330	–	CC(C)C[C@@H]1NC(=O)[C@H](Cc2ccccc2)NC(=O)[C@H](CCCNC(=N)N)NC(=O)[C@@H](NC(=O)[C@@H](N)Cc2ccccc2)CSSC[C@@H](C(=O)O)NC(=O)[C@H](C)NC(=O)[C@@H]2[C@@H]3CC[C@@H](C3)N2C(=O)[C@H](CCCCN)NC(=O)[C@H](CC(=O)O)NC(=O)[C@H](CCC(=O)O)NC(=O)[C@H](CCC(N)=O)NC(=O)[C@H](C(C)C)NC1=O [peptide incorporating LABHC] (H-FCRFLVQEDK[X2]AC-OH; disulfide 2-13; N-terminus assumed)	effect on mitogenic response at maximal doses of TGFA (NR6/HER cells [1]; maximal doses of TGFA, FIG. 2(b)): Similar, but less pronounced; effect on mitogenic response at suboptimal doses of TGFA (NR6/HER cells [1]; suboptimal doses of TGFA, FIG. 2(a)): Similar, but less pronounced; EGF Receptor phosphorylation (EGF Receptor): Neither the Example 1 peptide nor the corresponding peptide incorporating LABHC appeared to lead to increased EGF Receptor phosphorylation
130	–	CC(C)C[C@@H]1NC(=O)[C@H](Cc2ccccc2)NC(=O)[C@H](CCCNC(=N)N)NC(=O)[C@@H](NC(=O)[C@@H](N)Cc2ccccc2)CSSC[C@@H](C(=O)O)NC(=O)[C@H](C)NC(=O)[C@H]2[C@H]3CC[C@H](C3)N2C(=O)[C@H](CCCCN)NC(=O)[C@H](CC(=O)O)NC(=O)[C@H](CCC(=O)O)NC(=O)[C@H](CCC(N)=O)NC(=O)[C@H](C(C)C)NC1=O [Example 1 peptide] (H-FCRFLVQEDK[X1]AC-OH; disulfide 2-13)	–

Further lines, the molecule ahead of its results:

Molecule	EC50 (NR6/HER cells [2]) [µM]	DNA synthesis (mitogenic activity), EC50 [3] [µM]	also measured
PDGF	–	–	mitogenic response of NR6 cells (EGF-R negative) (NR6 cells): responsiveness of the cells to a mitogenic stimulus was confirmed
FCRFLVQEDK[DABHC]AC (disulfide 2-13)	–	130	–
FCRFLVQEDK[LABHC]AC (disulfide 2-13; reading uncertain)	–	330	–
